Test results reported in publication PMC12016938, “A small molecule PKCε inhibitor reduces hyperalgesia induced by paclitaxel or opioid withdrawal” (JCI Insight, 2025).
“And” between values parts separate entries of the source, which are not always exact repeats. Equal values may be shown once. Read-outs that look alike come from different tables or passages of the source.

Experiment: Pharmacokinetic studies in rats (plasma and brain)
Type: in vivo
Conditions: for Kp at 2 h / Kp at 24 h / concentration at 2 h / concentration at 24 h / Plasma concentration / Brain/Plasma / Plasma 2h/24h: rat; for concentration at 2 h / concentration at 24 h: read-out: Brain concentration
Description: Because binding to plasma protein was approximately 90%, we predicted that the free concentration at each time point was 10 times lower than the measured plasma concentration.
Pharmacokinetic studies in rats. Pharmacokinetics studies were contracted to the Drug Metabolism and Pharmacokinetics Core at Scripps Research. CP612 was dissolved at in 10% Tween-80/90% water and administered at 40 mg/kg/5 mL. Six rats were injected i.v. and 6 were injected i.p. Three rats were used to collect a full plasma time course from 5 minutes to 24 hours after dose. Then, brains were collected from these rats at 24 hours and from 3 additional rats at 2 hours after administration of compound. One rat receiving i.p. administration of CP612 was excluded as it had low/nondetectable levels indicating missed i.p. injection in that rat. Plasma samples were diluted 10-fold in blank plasma. Each brain was disrupted in potassium phosphate buffer (pH 7.4; 9 μL per 1mg tissue) on ice using brief sonication pulses. CP612 was detected with an API Triple Quad 5500 LC-MS/MS (SCIEX) using an MRM(+) method: CP612 (463/282, m/z) with carbamazepine (238/195.1, m/z) as an internal standard.

[1] = i.p. 40 mg/kg, 2h, individual rat, 40 mg/kg
[2] = i.p. 40 mg/kg, 24h, individual rat, 40 mg/kg
[3] = i.v. 40 mg/kg, 2h, individual rat, 40 mg/kg

## N[C@H](CNC(=O)C1(c2ccc(Cl)cc2)CCCC1)c1ccc(C(=O)Nc2ccncc2)cc1 [CP612]
40 mg/kg i.p.
  Brain level between 2 hours and 24 hours: remained stable
  Decrease of plasma level between 2 hours and 24 hours: about 30 fold
40 mg/kg i.v.
  Decrease of brain level between 2 hours and 24 hours: less than 2 fold
  Decrease of plasma level between 2 hours and 24 hours: about 70 fold
From approx. 90% plasma protein binding
  Predicted free concentration relative to measured plasma concentration: 10 times lower
brain, ip, 40 mg/kg, 40 mg/kg i.p., 2 hours, read-out: Brain/plasma concentration ratio
  Kp at 2 h: 0.03 ± 0.009
brain, ip, 40 mg/kg, 40 mg/kg i.p., 24 hours, read-out: Brain/plasma concentration ratio
  Kp at 24 h: 1.18 ± 0.42
brain, ip, 40 mg/kg, i.p. 40 mg/kg, 2h, mean all rats
  concentration at 2 h: 0.494 µM
brain, ip, 40 mg/kg, i.p. 40 mg/kg, 2h, mean all rats, read-out: Brain/Plasma
  Kp at 2 h: 0.0312
brain, ip, 40 mg/kg, i.p. 40 mg/kg, 2h, mean of Plasma 2h, Brain 2h rats
  concentration at 2 h: 0.494 µM
brain, ip, 40 mg/kg, i.p. 40 mg/kg, 2h, mean of Plasma 2h, Brain 2h rats, read-out: Brain/Plasma
  Kp at 2 h: 0.0312
brain, ip, 40 mg/kg, i.p. 40 mg/kg, 24h, individual rat
  concentration at 24 h: 0.609 µM
brain, ip, 40 mg/kg, i.p. 40 mg/kg, 24h, mean all rats
  concentration at 24 h: 0.54 µM
brain, ip, 40 mg/kg, i.p. 40 mg/kg, 24h, mean all rats, read-out: Brain/Plasma
  Kp at 24 h: 1.18
brain, ip, 40 mg/kg, i.p. 40 mg/kg, 24h, mean of RM Plasma + Brain 24h rats
  concentration at 24 h: 0.54 µM
brain, ip, 40 mg/kg, i.p. 40 mg/kg, 24h, mean of RM Plasma + Brain 24h rats, read-out: Brain/Plasma
  Kp at 24 h: 1.18
brain, iv, 40 mg/kg, 40 mg/kg i.v., 2 hours, read-out: Brain/plasma concentration ratio
  Kp at 2 h: 0.16 ± 0.03
brain, iv, 40 mg/kg, 40 mg/kg i.v., 24 hours, read-out: Brain/plasma concentration ratio
  Kp at 24 h: 9.17 ± 3.19
brain, iv, 40 mg/kg, i.v. 40 mg/kg, 2h, individual rat
  concentration at 2 h: 2.29 µM
brain, iv, 40 mg/kg, i.v. 40 mg/kg, 2h, individual rat, read-out: Brain/Plasma
  Kp at 2 h: 0.15
brain, iv, 40 mg/kg, i.v. 40 mg/kg, 2h, mean all rats
  concentration at 2 h: 2.63 µM
brain, iv, 40 mg/kg, i.v. 40 mg/kg, 2h, mean all rats, read-out: Brain/Plasma
  Kp at 2 h: 0.163
brain, iv, 40 mg/kg, i.v. 40 mg/kg, 2h, mean of Plasma 2h, Brain 2h rats
  concentration at 2 h: 2.63 µM
brain, iv, 40 mg/kg, i.v. 40 mg/kg, 2h, mean of Plasma 2h, Brain 2h rats, read-out: Brain/Plasma
  Kp at 2 h: 0.163
brain, iv, 40 mg/kg, i.v. 40 mg/kg, 24h, mean all rats
  concentration at 24 h: 1.46 µM
brain, iv, 40 mg/kg, i.v. 40 mg/kg, 24h, mean all rats, read-out: Brain/Plasma
  Kp at 24 h: 9.17
brain, iv, 40 mg/kg, i.v. 40 mg/kg, 24h, mean of RM Plasma + Brain 24h rats
  concentration at 24 h: 1.46 µM
brain, iv, 40 mg/kg, i.v. 40 mg/kg, 24h, mean of RM Plasma + Brain 24h rats, read-out: Brain/Plasma
  Kp at 24 h: 9.17
i.p. 40 mg/kg, 15min, individual rat, 40 mg/kg
  Plasma concentration: 21.8152 µM
i.p. 40 mg/kg, 30min, individual rat, 40 mg/kg
  Plasma concentration: 20.5408 µM
[1]
  Brain/Plasma: 0.02 and 0.0252 and 0.05
  Plasma concentration: 15.0330 µM and 14.2123 µM and 13.6507 µM and 17.5818 µM
  concentration at 2 h: 0.2808 µM and 0.3434 µM and 0.8575 µM
i.p. 40 mg/kg, 4h, individual rat, 40 mg/kg
  Plasma concentration: 6.4798 µM
i.p. 40 mg/kg, 6h, individual rat, 40 mg/kg
  Plasma concentration: 1.8748 µM
i.p. 40 mg/kg, 8h, individual rat, 40 mg/kg
  Plasma concentration: 1.9742 µM
[2]
  Brain/Plasma: 1.60 and 0.76
  Plasma concentration: 0.6156 µM
  concentration at 2 h: 0.4709 µM
i.p. 40 mg/kg, individual rat, 40 mg/kg
  Plasma 2h/24h: 37.8409 and 24.4211
i.p. 40 mg/kg, mean all rats
  Plasma 2h/24h: 31.1310
i.p. 40 mg/kg, mean of RM Plasma + Brain 24h rats
  Plasma 2h/24h: 31.1310
i.v. 40 mg/kg, 5min, individual rat, 40 mg/kg
  Plasma concentration: 73.0053 µM and 87.6928 µM
i.v. 40 mg/kg, 15min, individual rat, 40 mg/kg
  Plasma concentration: 49.4622 µM and 51.4061 µM
i.v. 40 mg/kg, 30min, individual rat, 40 mg/kg
  Plasma concentration: 35.6387 µM and 16.8474 µM and 33.0468 µM
i.v. 40 mg/kg, 1h, individual rat, 40 mg/kg
  Plasma concentration: 23.5431 µM and 24.6231 µM
[3]
  Brain/Plasma: 0.22 and 0.12
  Plasma concentration: 15.3138 µM and 16.6530 µM and 15.9834 µM and 12.3331 µM and 12.0740 µM
  concentration at 2 h: 3.6719 µM and 1.9223 µM
i.v. 40 mg/kg, 4h, individual rat, 40 mg/kg
  Plasma concentration: 4.0175 µM and 4.3414 µM
